Results published in US8183230B2, “Antimicrobial preservatives to achieve multi-dose formulation using beta-cyclodextrins for liquid dosage forms” (priority 2004, dated 2012).
“Also recorded” adds a separate entry of the source.

Assays:
[1] = system: Escherichia coli, Pseudomonas aeruginosa, Staphylococcus aureus, Candida albicans, Aspergillus niger; assay: Hybrid USP/Ph. Eur. antimicrobial effectiveness test (AET); format: cell-based
Description: Preparation of Preserved Formulations. […] Antimicrobial preservatives with optimal activity at a pH outside the nominal formulation value (pH 4.4) were titrated to either 3.5 or 5.0 using 1 N HCl or 1 N NaOH. A stock solution of either 10% or 5% (weight/volume) SBE-CD containing 10 mgA/mL of the compound of Formula Ia citrate was prepared. Preservative was added to the respective formulation on a weight basis.
Antimicrobial Efficacy Testing. A hybrid USP […]/Ph. Eur. 2000 antimicrobial effectiveness test (AET) was performed, as follows: 20 mL of drug product was individually inoculated with 0.1-0.2 mL of bacterial or fungal culture, per USP/Ph. Eur. compendial requirements. The final concentration of organisms in the test sample was between 1×10^5 and 1×10^6 cfu/mL. At initial 6 hr, 24 hr, 7 day, 14 day, and 28 day time intervals, 1 mL of the inoculated product was transferred into 9 mL of a recovery diluent, that was validated to confirm neutralization of the antimicrobial preservative. One mL of the diluted sample was then transferred to a sterile petri dish and combined with 15-20 mL of an agar broth to culture the organisms. Plates were then incubated for 3 to 5 days, upon which colonies were counted. Initial organism contamination was then calculated based on dilution of the initial sample.
Generally, the USP test requirements are less stringent than Ph. Eur. requirements, which typically have an immediate bacteriocidal activity requirement. The Ph. Eur. requirements shown in Table III have either a “Criteria A” or “Criteria B” specification depending on the rate of microorganism reduction, with criteria A requiring an increased bacteriocidal rate. In order to meet the combined hybrid assay, the initial inoculum count of microorganisms needed to be reduced by the amounts listed in Table V.

[2] = Study A; pH: 4.4, SBE-CD: 10%; compound of Formula Ia at 10 mgA/mL; content: ethanol 15%, meta-cresol 0.3%, propylene glycol 50%, thimerosal 0.01
Description: Injection site toleration was measured by inspecting the patient for signs of reaction, including erythema (size); skin thickening (size), pain on palpation and edema. Table VI provides a detailed explanation of the scoring system: a score of 0 (no reaction) to 4 (severe reaction) was given for each characteristic and each injection site daily.
Compound of Formula Ia formulations were evaluated for injection site toleration (hereinafter “IST”).
Formulations were tested in groups of 4 dogs comprised of beagles and mongrels. […] Dogs were observed daily for evidence of reaction at the injection site and a score of 0-4 (see Table VI) was given for each of the following parameters: pain on injection, erythema, tissue thickening, pain on palpation and edema. Dogs were observed daily until day 5 (24 hours after the last dose).

[3] = system: Escherichia coli, Pseudomonas aeruginosa, Staphylococcus aureus, Candida albicans, Aspergillus niger; conditions: as indicated by literature; cited from earlier work

With Cc1cccc(O)c1 [meta-cresol] the reducing the microorganisms [1] was “effective”, the “AET Results Ph. Eur. Criteria A” value ([1]; Study A, pH: 4.4, SBE-CD: 10%, compound of Formula Ia at 10 mgA/mL, content: ethanol 15%, meta-cresol 0.3%, propylene glycol 50%, thimerosal 0.01, cells without ✓ print organism (time point)) was “s. aur (6, 24 hr); also recorded: c. alb (7 d)” and the “Ph. Eur. criteria B” value ([1]; leads of Study B) was “met criteria B”. For the same compound, the “Ph. Eur. criteria A for preservative efficacy” value ([1]; meta-cresol containing formulations) was “robustly meeting Ph. Eur. criteria A”, the activity against bacteria ([1]; when SBE-CD was present in the formulation) was “greatly diminished” and the IST [2] was “Good”. For the same compound, the “USP and Ph. Eur. criteria A or B requirements” value [3] was “met both the USP and either Ph. Eur. criteria A or B requirements”.
